{
  "source": "patent US20220288004A1",
  "about": "“TREATMENT AND PREVENTION OF AGING RELATED-DISEASE AND/OR AGING BY THE INHIBITION OF SPHINGOLIPIDS” (ECOLE POLYTECHNIQUE FEDERALE DE LAUSANNE (EPFL), priority 2019, published 2022)",
  "key": {"C2C12 myoblasts": {"system": "C2C12 myoblasts", "experiment": "C2C12 myoblast differentiation", "type": "cell-based, mouse", "settings": "C2C12, 30 μM myriocin vs DMSO", "method": "Cell culture and cell transfection. The C2C12 mouse myoblast cell line was obtained from the American Type Culture Collection (CRL-1772™). C2C12 cells or clones were cultured in growth medium consisting of Dulbecco's modified Eagle's medium (Gibco, 41966-029), 20% Fetal Bovine Serum (Gibco, 10270-106) and 100 U/mL penicillin and […] streptomycin (Gibco, 15140-122). To induce differentiation, FBS was substituted with 2% horse serum (Gibco, 16050-122). Trypsin-EDTA 0.05% (GIBCO, 25300-062) was used to detach cells. Human skeletal muscle cells were obtained from Lonza (SkMC, #CC-2561) and cultured in growth medium consisting of DMEM/F12 (Gibco, 10565018), 20% Fetal Bovine Serum (Gibco, 10270-106) and 100 U/mL penicillin and […] streptomycin (Gibco, 15140-122). To induce differentiation, FBS was reduced to 2% and kept in culture. All cells were maintained at 37° C. with 5% CO2. Cell transfections were done using TransiT (Mirus) according to the manufacturer's protocol with a 3:1 ratio of transfection agent to DNA. C2C12 cells were grown confluent, and 30 μM myriocin or DMSO was added and cells were kept in growth medium for another 3 days. Sptlc1 clones were plated to reach confluency simultaneously and were kept in growth medium for 3 days before using them for immunocytochemistry or RNA isolation. The concentration of myriocin in medium for all experiments was 30 μM. A stock solution of 20 mM myriocin in DMSO was used dissolve myriocin, and a corresponding volume of DMSO without myriocin was used as control.\nRNA isolation and real time qPCR. RNA was isolated using the RNeasy Mini kit (Qiagen, 74106) and reverse transcribed with the High-Capacity-RNA-to-cDNA kit (Thermo Fisher, 4387406). Gene expression was measured by qPCR using the Power SybrGreen Master mix (Thermo Fisher, 4367659). All quantitative polymerase chain reaction (PCR) results were calculated relative to the mean of the housekeeping gene Gapdh. The average of two technical replicates was used for each biological data point.\nImmunocytochemistry. C2C12 cells cultured on a sterilized cover slip in 6-well plates (Greiner bio-one, CELLSTAR, 657160) were fixed in Fixx solution (Thermo Scientific, 9990244) for 15 min and permeabilized in 0.1% Triton X-100 (Amresco, 0694) solution for 15 min at room temperature. Cells were blocked in 3% BSA for 1 h at room temperature to avoid unspecific antibody binding and then incubated with primary antibody over night at 4° C. with gentle shaking. […] The immunofluorescence images were acquired using either fluorescence or confocal microscopy. The myofusion index was calculated as the ratio of nuclei within myotubes to total nuclei. The myotube diameter was measured for 8 myotubes per image using ImageJ. Myotube area was calculated as the total area covered by myotubes."}, "[1]": {"system": "human primary myoblasts from IBM donors", "experiment": "Proteostat staining of IBM patient myoblasts", "type": "cell-based", "settings": "30 μM MYR for 24 h", "method": "FIG. 16. Quantitative Proteostat signal normalized over the number of cells in human primary myoblasts from IBM donors (above) and APPSwe-expressing C2C12 myoblasts (below) decreases after treatment with 30 μM MYR for 24 h. Values are expressed as mean±s.e.m. ***P:0.001; ****P:0.0001. Differences between two groups were assessed using Student's two-tailed t-tests (error bars: 95% confidence intervals).\nCell lines from IBM patients featuring impaired proteostasis were obtained. This was validated using Proteostat staining which targets general disruption in proteostasis."}, "[2]": {"system": "quadriceps muscle of aged C57Bl/6JRj mice", "experiment": "Quadriceps transcript profiling using RNA sequencing", "type": "in vivo, mouse", "settings": "aged myriocin vs DMSO treated mice", "method": "To identify biological pathways whose modulation could explain improved muscle function upon myriocin treatment, transcriptomes of quadriceps muscle of aged myriocin and DMSO treated mice using RNA sequencing were compared. Gene set enrichment analysis (GSEA) ranking transcripts based on their fold change were performed.\nQuadriceps transcript profiling using RNA sequencing. Quadriceps muscles were collected and snap-frozen in liquid nitrogen from C57Bl/6JRj mice undergoing intraperitoneal myriocin treatment for 10 weeks on a chow diet starting at the age of 18 months. RNA was isolated using Direct-zol RNA kit (Zymo, Irvine, Calif.). RNA quality was assessed using Agilent 2100 BioAnalyzer (Agilent, Santa Clara, Calif.). Samples with RIN≥8, 28S/18S≥1.0, and c≥20 ng/μL were included in analyses. […] Sequencing libraries were prepared by BGI genomics using the DNBsea™ technology. Paired end sequencing with 100 cycles was performed using the BGISEQ-500 instrument. After removal of adaptor sequences and low quality reads, at least 56 million reads per sample was obtained. SOAPnuke was used to obtain clean reads (parameters -l 15, -q 0.2, -n 0.05). Reads were mapped using STAR aligner version 2.5.2b using the mouse GRCm38 genome assembly and the release 91 GTF annotation from Ensembl. Htseq-count version 0.6.0 was used to count the number of reads mapping to genes (mode=union, type=exon, idattr=gene_id). Transcript displaying higher expression than log 2(CPM+1)>0.5 in at least 3 samples were included in analyses. Differential gene expression analysis and expression normalization was performed using voom, ‘variance modeling at the observational level’, adjusting for sacrifice date. At individual gene level, no gene passed the multiple testing correction threshold. Benjamini-Hochberg correction for multiple testing was used. For gene set enrichment analysis using gene ontology (GO) categories, transcripts were ordered according to their log 2-transformed fold change, and 100,000 permutations were used. Adjusted p-value<0.05 was considered significant."}},
  "data": [
    {"smiles": "CCCCCCC(=O)CCCCCCC=CCC(O)C(O)C(N)(CO)C(=O)O", "note": "(stereo not shown) [myriocin, 2-Amino-3,4-dihydroxy-2-(hydroxymethyl)-14-oxoicos-6-enoic acid]", "values": [
      {"measurement": "fusion index", "setting": "C2C12 myoblasts", "result": "greater"},
      {"measurement": "myoblast differentiation", "setting": "C2C12 myoblasts", "result": "accelerated"},
      {"measurement": "myogenic transcript signature (Myog, Myh4, Myh1)", "setting": "C2C12 myoblasts", "result": "upregulation"},
      {"measurement": "myotube area", "setting": "C2C12 myoblasts", "result": "greater"},
      {"measurement": "Proteostat signal normalized over the number of cells (protein aggregates)", "setting": "[1]", "result": "clearing protein aggregates"},
      {"measurement": "Proteostat signal normalized over the number of cells (protein aggregates)", "setting": "[1]; listed as MYR", "result": "decreases"},
      {"measurement": "expression of Pax7 in quadriceps muscle", "setting": "[2]", "result": "upregulated"},
      {"measurement": "most downregulated pathways (gene set enrichment analysis)", "setting": "[2]; quadriceps RNA-seq", "result": "lipid metabolism and inflammation"},
      {"measurement": "upregulated pathways (gene set enrichment analysis)", "setting": "[2]; quadriceps RNA-seq", "result": "muscle contraction and differentiation"},
      {"measurement": "Myog and Myf5 transcripts in skeletal muscle", "setting": "[2]; quadriceps", "result": "upregulated"}
    ]}
  ]
}
